According to US8598368B2, “Stable neutral nitric oxide source” (priority 2007, dated 2013):

Key:
[1] = Stability of the Diels-Alder adduct and its hydrogenated derivative (observation); assay type: physicochemical; conditions: white solid precipitated at 0° C., then warmed
Protocol: At 0° C., a white solid, presumed to be 2, precipitated from solution. […] To confirm the identity of 2, hydrogenation produced stable compound 3 as described below.

[2] = Treatment of patient with chronic hypertension; assay type: in vivo; conditions: intravenous, blood concentration of 10 nanomolar
Text: A person being treated with sodium iodide for hyperthyroidism has chronic hypertension (BP of 165/90). The patient is given 4 intravenously to maintain a blood concentration of 10 nanomolar. Blood pressure reduces to 140/85.
Treatment of patient with chronic hypertension with 6 The patient who has chronic hypertension (BP of 165/90) is given 6 intravenously to maintain a blood concentration of 10 nanomolar. Blood pressure reduces to 140/85.

N#CC1(N2OC3CCC2C3)CCCCC1 (stereo not shown) [Compound 3, N-(−1-cyanocyclohexyl)bicyclo[2.2.1]3,4,5,6-tetrahydro-1,2-oxazine]
Stability (retro Diels Alder reaction) [1]: stable

N#CC1(N2OC3CC2C(S)C3O)CCCCC1 (stereo not shown) [Compound 6, N-(1-Cyanocyclohexyl)bicyclo[2.2.1]4-thio-5-hydroxy-3,6-dihydro-1,2-oxazine]
Blood pressure ([2]; patient with chronic hypertension (BP of 165/90)): 140/85

N#CC1(N2OC3C=CC2C3)CCCCC1 (stereo not shown) [Compound 2]
Stability (retro Diels Alder reaction) [1]: On warming, the solid turned blue, suggesting retro Diels Alder reaction

N#CC1(N2OC3CC2C(Br)C3Br)CCCCC1 (stereo not shown) [Compound 4, N-(1-cyanocyclohexyl)bicyclo[2.2.1]4,5-dibromo-3,6-dihydro-1,2-oxazine]
Blood pressure ([2]; person treated with sodium iodide, chronic hypertension (BP of 165/90)): 140/85
